For data set [1], the system named is gram-positive and gram-negative bacteria. The note with it: many gram-positive and gram-negative bacteria; free base, acid addition or quaternary salt form; cited from earlier work.
Data set [2] can be described thus: Stability in conventional complete feed mixtures (general statement). The format is physicochemical.
Data set [3] is described as follows: Phase-solubility diagram (inclusion compound type, complex binding constant) with β-cyclodextrin. The format is physicochemical. To be noted: compound of formula I in the form of the base; with cyclodextrin (printed without Greek letter). The text has this: (§1) Based on the phase-solubility diagram (see "Methods of investigating and preparing inclusion compounds and their industrial uses" in D. Duchene, "Cyclodextrins and their Industrial Uses", Editions de Sante [1987]), the following types of inclusion compounds are obtained with the compound of formula I in the form of the base and […]

A short description of data set [4]: Phase-solubility diagram (inclusion compound type, complex binding constant) with γ-cyclodextrin. It counts as physicochemical. To be noted: compound of formula I in the form of the base.
Description: as §1

Data set [5] can be described thus: Feed stability: optimum ratio of compound of formula I to β-cyclodextrin. The format is physicochemical. To be noted: feed mixtures, ratio to β-cyclodextrin varied. The procedure: (§2) As model feed a ready feed for piglets of the following composition is used:
Various forms of the preparation are mixed with the ready feed in a concentration of 200 ppm of compound of formula I and stored for several weeks at 30°. […]
For determination of the optimum ratio of compound of formula I to cyclodextrin, investigations are carried out using various concentrations of cyclodextrin. Results as regards stability in feed mixtures are summarized in Table 2 [in the first column "ratio" means the ratio of compound of formula I (hydrochloride) to β-cyclodextrin]: […]

Data set [6] in a line: Oral absorption in rats, plasma concentration by microbiological analysis. It counts as in vivo. The note with it: rat, 25 mg/kg body weight, pure compound in drinking water. On the procedure:
(§3) Absorption following administration to rats and pigs of 25 mg/kg body weight of a preparation according to Example 3 is tested and compared with pure compound of formula I (hydrochloride) in the drinking water. Blood samples are taken after a period of 24 hours and the concentration of active substance in plasma determined by microbiological analysis. The results in Table 3 show the absorption of the compound of formula I when administered in the form of a complex of the invention: […]

Data set [7] can be described thus: Oral absorption in pigs, plasma concentration by microbiological analysis. It counts as in vivo. To be noted: pig, 25 mg/kg body weight, pure compound in drinking water. The procedure:
as §3

The nature of data set [8]: Feed stability: storage in ready piglet feed, content by HPLC. To be noted: feed mixture, 200 ppm, 30°. The format is physicochemical. On the procedure:
as §2
Various forms of the preparation are mixed with the ready feed in a concentration of 200 ppm of compound of formula I and stored for several weeks at 30°. Both the starting value of the fresh mixtures and the content values after storage for 2, 4 and 8 weeks are analysed by high pressure liquid chromatography (HPLC).

Where [9] appears, read: read-out: AUC (area under curve).
Setting [10] is: read-out: Cmax (maximum plasma concentration).

The values below come from patent US5578585A, “Pleuromutilin derivative complexes” (Biochemie Gesellschaft m.b.H., priority 1991, dated 1996).

The AUC is the area under the concentration-time curve, a measure of exposure.

Take `C=C[C@]1(C)C[C@@H](OC(=O)CSC(C)(C)CNC(=O)[C@H](N)C(C)C)[C@]2(C)[C@H](C)CC[C@]3(CCC(=O)[C@H]32)[C@@H](C)[C@@H]1O` [compound of formula I, 14-O-[1-((D)-2-amino-3-methylbutyrylamino)-2-methylpropan-2-ylthioacetyl]mutilin]: the antibacterial effectiveness entry in data set [1] is on record as “highly effective”. Moreover, the “breakdown by constituents of conventional complete feed mixtures” value in data set [2] is “broken down very rapidly”. For the same compound, the results for the “type of inclusion compound (phase-solubility diagram)” value in data set [3] and in data set [4] were “type AL” and “type BS”, respectively.
For the compound `C=C[C@]1(C)C[C@@H](OC(=O)CSC(C)(C)CNC(=O)[C@H](N)C(C)C)[C@]2(C)[C@H](C)CC[C@]3(CCC(=O)[C@H]32)[C@@H](C)[C@@H]1O` [14-O-[1-((D)-2-amino-3-methylbutyrylamino)-2-methylpropan-2-ylthioacetyl]mutilin], the “Content after 1 month” value in data set [5] (after 1 month, 43800 min) is recorded as 9%. In addition, in data set [5] (after 2 months, 87600 min), the “Content after 2 months” value was found to be 9%. The “Content after 3 months” value in data set [5] (after 3 months, 131400 min) is listed as 7%. Also, the “Content, initial value” in data set [5] (initial value) and in data set [8] (initial value) was 100% throughout. For the same compound, the AUC was found to be 139 µg·h/mL in data set [6] (setting [9]) and 21400 ng·h/mL in data set [7] (setting [9]). Besides, the Cmax is 8600 ng/mL in data set [6] (setting [10]) and 1200 ng/mL in data set [7] (setting [10]). The “Content after 2 weeks” value in data set [8] (after 2 weeks, 20160 min) is reported as 15%. Further, in data set [8] (after 4 weeks, 40320 min), the “Content after 4 weeks” value is 8%. Besides, in data set [8] (after 8 weeks, 80640 min), the “Content after 8 weeks” value was 6%.
